Legend:
Format in all cases: in vivo
[1] = test system: green foxtail (Setaria viridis, SEV); assay: Post-emerge test, green foxtail; details: 250 g ai/ha, 14 days after application, rating scale 0-100 (0 no damage, 100 complete death)
Method in brief: (§1)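 Post-emergence spray, 8-1000 g ai/ha in acetone at 187 l/ha with 0.25% v/v non-ionic surfactant, applied to 2-3 leaf plants. Pots of sandy loam mix, greenhouse. Visual 0-100 injury rating at 14 DAT.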

[2] = test system: barnyardgrass (Echinachloa crus-galli, ECC); assay: Post-emerge test, barnyardgrass; details: 250 g ai/ha, 14 days after application, rating scale 0-100 (0 no damage, 100 complete death)
Method in brief: as §1

[3] = test system: wheat (Triticum aestivum); assay: Post-emerge test, crop damage wheat
Method in brief: as §1

[4] = test system: wheat (Triticum aestivum); assay: Pre-emerge test, crop damage wheat
Method in brief: (§2)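 Scores at 14 days after treatment use a 0–100 scale, where 0 is no damage and 100 is death of all plants. Treatments were acetone solutions sprayed at 8–1000 g ai/ha onto soil sown one day prior.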

[5] = test system: common ragweed (Ambrosia artemisiifolia L., AML); assay: Post-emerge test, common ragweed; details: 250 g ai/ha, 14 days after application, rating scale 0-100 (0 no damage, 100 complete death)
Method in brief: as §1

[6] = test system: velvetleaf (Abutilon theophrasti, ABT); assay: Post-emerge test, velvetleaf; details: 250 g ai/ha, 14 days after application, rating scale 0-100 (0 no damage, 100 complete death)
Method in brief: as §1

[7] = test system: redroot pigweed (Amaranthus retroflexus, AMR); assay: Post-emerge test, redroot pigweed; details: 250 g ai/ha, 14 days after application, rating scale 0-100 (0 no damage, 100 complete death)
Method in brief: as §1

[8] = test system: upland rice (Oryza sp., var.Tebonnet, RICE); assay: Post-emerge test, crop damage upland rice
Method in brief: as §1

[9] = test system: soybean (Glycine max L., var. Pella 86, SOY); assay: Pre-emerge test, crop damage soybean
Method in brief: as §2

[10] = test system: large crabgrass (Digitaria sanguinalis, DIS); assay: Pre-emerge test, large crabgrass; details: 250 g ai/ha, 14 days after application, rating scale 0-100 (0 no damage, 100 complete death)
Method in brief: (§3)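 Efficacy values are 0–100 phytotoxicity scores (0 no damage, 100 complete death) recorded 14 days post-application. Spray was delivered pre-emergence at 187 l/ha with rates of 8–1000 g ai/ha, using acetone as solvent.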

[11] = test system: field corn (Zea mays L., var. Dekalb 535, CORN); assay: Post-emerge test, crop damage field corn
Method in brief: as §1

[12] = test system: field corn (Zea mays L., var. Dekalb 535, CORN); assay: Pre-emerge test, crop damage field corn
Method in brief: as §2

[13] = test system: barnyardgrass (Echinachloa crus-galli, ECC); assay: Pre-emerge test, barnyardgrass; details: 250 g ai/ha, 14 days after application, rating scale 0-100 (0 no damage, 100 complete death)
Method in brief: as §3

[14] = test system: johnsongrass (Sorghum halepense, SOH); assay: Pre-emerge test, johnsongrass; details: 250 g ai/ha, 14 days after application, rating scale 0-100 (0 no damage, 100 complete death)
Method in brief: as §3

[15] = test system: johnsongrass (Sorghum halepense, SOH); assay: Post-emerge test, johnsongrass; details: 250 g ai/ha, 14 days after application, rating scale 0-100 (0 no damage, 100 complete death)
Method in brief: as §1

[16] = test system: cocklebur (Xanthium strumariunt, XAS); assay: Pre-emerge test, cocklebur; details: 250 g ai/ha, 14 days after application, rating scale 0-100 (0 no damage, 100 complete death)
Method in brief: as §3

[17] = test system: ivyleaf morningglory (Ipomoea hederacea, IPH); assay: Post-emerge test, ivyleaf morningglory; details: 250 g ai/ha, 14 days after application, rating scale 0-100 (0 no damage, 100 complete death)
Method in brief: as §1

[18] = test system: lambsquarters (Chenopodium album, CHA); assay: Pre-emerge test, lambsquarters; details: 250 g ai/ha, 14 days after application, rating scale 0-100 (0 no damage, 100 complete death)
Method in brief: as §3

[19] = test system: ivyleaf morningglory (Ipomoea hederacea, IPH); assay: Pre-emerge test, ivyleaf morningglory; details: 250 g ai/ha, 14 days after application, rating scale 0-100 (0 no damage, 100 complete death)
Method in brief: as §3

[20] = test system: sicklepod (Cassia obtusifolia, CAO); assay: Pre-emerge test, sicklepod; details: 250 g ai/ha, 14 days after application, rating scale 0-100 (0 no damage, 100 complete death)
Method in brief: as §3

[21] = test system: velvetleaf (Abutilon theophrasti, ABT); assay: Pre-emerge test, velvetleaf; details: 250 g ai/ha, 14 days after application, rating scale 0-100 (0 no damage, 100 complete death)
Method in brief: as §3

[22] = test system: upland rice (Oryza sp., var.Tebonnet, RICE); assay: Pre-emerge test, crop damage upland rice
Method in brief: as §2

[23] = test system: sicklepod (Cassia obtusifolia, CAO); assay: Post-emerge test, sicklepod; details: 250 g ai/ha, 14 days after application, rating scale 0-100 (0 no damage, 100 complete death)
Method in brief: as §1

[24] = test system: green foxtail (Setaria viridis, SEV); assay: Pre-emerge test, green foxtail; details: 250 g ai/ha, 14 days after application, rating scale 0-100 (0 no damage, 100 complete death)
Method in brief: as §3

[25] = test system: common ragweed (Ambrosia artemisiifolia L., AML); assay: Pre-emerge test, common ragweed; details: 250 g ai/ha, 14 days after application, rating scale 0-100 (0 no damage, 100 complete death)
Method in brief: as §3

[26] = test system: redroot pigweed (Amaranthus retroflexus, AMR); assay: Pre-emerge test, redroot pigweed; details: 250 g ai/ha, 14 days after application, rating scale 0-100 (0 no damage, 100 complete death)
Method in brief: as §3

[27] = test system: large crabgrass (Digitaria sanguinalis, DIS); assay: Post-emerge test, large crabgrass; details: 250 g ai/ha, 14 days after application, rating scale 0-100 (0 no damage, 100 complete death)
Method in brief: as §1

[28] = test system: soybean (Glycine max L., var. Pella 86, SOY); assay: Post-emerge test, crop damage soybean
Method in brief: as §1

[29] = test system: lambsquarters (Chenopodium album, CHA); assay: Post-emerge test, lambsquarters; details: 250 g ai/ha, 14 days after application, rating scale 0-100 (0 no damage, 100 complete death)
Method in brief: as §1

[30] = test system: cocklebur (Xanthium strumariunt, XAS); assay: Post-emerge test, cocklebur; details: 250 g ai/ha, 14 days after application, rating scale 0-100 (0 no damage, 100 complete death)
Method in brief: as §1

[31] = Triticum aestivum (wheat), in vivo, 14 days
[32] = var. Tebonnet, Oryza sp. (upland rice), in vivo, 14 days
[33] = var. Pella 86, Glycine max (soybean), in vivo, 14 days
[34] = var. Dekalb 535, Zea mays (field corn), in vivo, 14 days
[35] = post-emerge, 250 g ai/ha, 14 days after application, rating scale 0-100 (0 no damage, 100 complete death)
[36] = pre-emerge, 250 g ai/ha, 14 days after application, rating scale 0-100 (0 no damage, 100 complete death)

SMILES | Post-emerge Herbicidal Activity SEV (phytotoxicity rating) [1] | Post-emerge Herbicidal Activity ECC (phytotoxicity rating) [2] | Post-emerge Herbicidal Activity AML (phytotoxicity rating) [5] | Post-emerge Herbicidal Activity ABT (phytotoxicity rating) [6] | Post-emerge Herbicidal Activity AMR (phytotoxicity rating) [7] | Pre-emerge Herbicidal Activity DIS (phytotoxicity rating) [10] | Pre-emerge Herbicidal Activity ECC (phytotoxicity rating) [13] | Pre-emerge Herbicidal Activity SOH (phytotoxicity rating) [14] | Post-emerge Herbicidal Activity SOH (phytotoxicity rating) [15] | Pre-emerge Herbicidal Activity XAS (phytotoxicity rating) [16] | Post-emerge Herbicidal Activity IPH (phytotoxicity rating) [17] | Pre-emerge Herbicidal Activity CHA (phytotoxicity rating) [18] | Pre-emerge Herbicidal Activity IPH (phytotoxicity rating) [19] | Pre-emerge Herbicidal Activity CAO (phytotoxicity rating) [20] | Pre-emerge Herbicidal Activity ABT (phytotoxicity rating) [21] | Post-emerge Herbicidal Activity CAO (phytotoxicity rating) [23] | Pre-emerge Herbicidal Activity SEV (phytotoxicity rating) [24] | Pre-emerge Herbicidal Activity AML (phytotoxicity rating) [25] | Pre-emerge Herbicidal Activity AMR (phytotoxicity rating) [26] | Post-emerge Herbicidal Activity DIS (phytotoxicity rating) [27] | further results
C[C@H]1Oc2cc(F)c(-c3nn(C)c(OC(F)F)c3Cl)c3c2N(CC(=O)N3)C1=O [1-55, 8-[-4-Chloro-5-(difluoromethoxy)-1-methyl-1H-pyrazol-3-yl)-9-fluoro-2-R-methyl-5H-pyrazino[1,2,3-de]-1,4-benzoxazine-3,6(2H, 7H)-dione] | 99 | 95 | 85 | 100 | 100 | 100 | 100 | 100 | 50 | 95 | 100 | 100 | 100 | 100 | 99 | 99 | 100 | 100 | 100 | 35 | Post-emerge crop damage WHEAT (phytotoxicity rating) [3, 31]: 50; Pre-emerge crop damage WHEAT (phytotoxicity rating) [4, 31]: 3; Post-emerge crop damage RICE (phytotoxicity rating) [8, 32]: 75; Pre-emerge crop damage SOY (phytotoxicity rating) [9, 33]: 60; Post-emerge crop damage CORN (phytotoxicity rating) [11, 34]: 15; Pre-emerge crop damage CORN (phytotoxicity rating) [12, 34]: 20; Pre-emerge crop damage RICE (phytotoxicity rating) [22, 32]: 40; Post-emerge crop damage SOY (phytotoxicity rating) [28, 33]: 75; Post-emerge Herbicidal Activity CHA (phytotoxicity rating) [29]: 100; Post-emerge Herbicidal Activity XAS (phytotoxicity rating) [30]: 100
CC1Oc2cc(F)c(-c3nn(C)c(OC(F)F)c3Cl)c3c2N(CC(=O)N3)C1=O (stereo not drawn) [1-56] | 100 | 100 | 100 | 100 | 100 | 100 | 100 | 100 | 85 | 100 | 100 | 100 | 100 | 100 | 100 | 100 | 100 | 100 | 100 | 100 | Post-emerge crop damage WHEAT (phytotoxicity rating) [3, 35]: 30; Pre-emerge crop damage WHEAT (phytotoxicity rating) [4, 36]: 55; Post-emerge crop damage RICE (phytotoxicity rating) [8, 35]: 99; Pre-emerge crop damage SOY (phytotoxicity rating) [9, 36]: 15; Post-emerge crop damage CORN (phytotoxicity rating) [11, 35]: 20; Pre-emerge crop damage CORN (phytotoxicity rating) [12, 36]: 50; Pre-emerge crop damage RICE (phytotoxicity rating) [22, 36]: 75; Post-emerge crop damage SOY (phytotoxicity rating) [28, 35]: 100; Post-emerge Herbicidal Activity CHA (phytotoxicity rating) [29]: 100; Post-emerge Herbicidal Activity XAS (phytotoxicity rating) [30]: 100
Cn1nc(-c2c(F)cc3c4c2NC(=O)CN4C(=O)C(C)(C)O3)c(Cl)c1OC(F)F [1-59] | 99 | 99 | 80 | 100 | 100 | 99 | 99 | 100 | 65 | 60 | 100 | 100 | 85 | 99 | 100 | 70 | 100 | 100 | 100 | 99 | Post-emerge crop damage WHEAT (phytotoxicity rating) [3, 35]: 35; Pre-emerge crop damage WHEAT (phytotoxicity rating) [4, 36]: 45; Post-emerge crop damage RICE (phytotoxicity rating) [8, 35]: 55; Pre-emerge crop damage SOY (phytotoxicity rating) [9, 36]: 15; Post-emerge crop damage CORN (phytotoxicity rating) [11, 35]: 10; Pre-emerge crop damage CORN (phytotoxicity rating) [12, 36]: 40; Pre-emerge crop damage RICE (phytotoxicity rating) [22, 36]: 50; Post-emerge crop damage SOY (phytotoxicity rating) [28, 35]: 45; Post-emerge Herbicidal Activity CHA (phytotoxicity rating) [29]: 100; Post-emerge Herbicidal Activity XAS (phytotoxicity rating) [30]: 100

— patent US6770596B1, “Fused tricyclic compounds, process for their preparation, and herbicidal compositions containing them” (Ishihara Sangyo Kaisha Ltd., priority 2002, dated 2004)
